Source: patent US20060088902A1, “Methods and materials for the identification of antifungal substrates in filamentous fungi” (priority 2001, published 2006)

How the values were obtained:
Type in all cases: cell-based, Aspergillus niger
[1] = tested on: gfaA; assay: Northern blot analysis of gfaA expression in CFW stressed germlings; details: germlings treated with 200 μg/ml CFW; RNA 1, 2 and 4 hours after addition; vs untreated germlings
Procedure: (§1) To identify genes that are induced upon cell wall stress, we have first investigated which cell wall perturbing compound was suited for this purpose. Finally, we used the antifungal compound Calcofluor White (CFW) to induce cell wall stress. […] Because of the defects in cell wall assembly, the cell wall is weakened en swells from internal pressure. Polarized growth is resumed after 2-4 hours. Both the effect of hyphal tip swelling and the time that is required to resume growth are dependent on the concentration of CFW (FIG. 3). To identify genes that are induced upon CFW treatment, mRNA has been isolated from germling that have been treated with or without CFW for various time intervals. […] These germlings were than treated with 200 μg/ml CFW. After 1, 2 and 4 hours after addition of CFW total RNA was isolated and used in Northern blot experiments (see FIG. 4). As a control, total RNA was isolated from germlings that were not treated with CFW. Several probes encoding putative proteins involved in cell wall biosynthesis have been analysed and quantified.
(§2) The highest induction was found for agsA. Thus, these genes are regulated by the promoter sequences as a response to the induced cell wall stress. Such promoters are suitable candidates for use as reporters. […] No signal could be detected for the other ags homologs.

[2] = tested on: fksA; assay: Northern blot analysis of fksA expression in CFW stressed germlings; details: in the presence of CFW (200 μg/ml)
Procedure: as §1, §2

[3] = tested on: germinated spores of A. niger; assay: Effect of CFW addition on growth of germlings
Procedure: FIG. 3: Effect of CFW addition on growth of germlings. Germinated spores of A. niger were treated with increasing concentrations of CFW. Both the extend of hyphal tip swelling and the time required to resume growth is dependent on the concentration of CFW.
as §1

[4] = tested on: agsA promoter; assay: PagsA-AmdS reporter strain growth on acetamide plates; details: 0.5 mg/ml CFW added to the plates
Excerpt: Aspergillus niger grows poorly on acetamide as a nitrogen source. When additional copies of the amdS gene, encoding a acetamidase of A. nidulans are introduced, A. niger can grown on acetamide plates and the amdS gene can therefore be used as a selectable marker (Kelly and Hynes, 1985). The coding region of the amdS gene was fused to the agsA promoter sequence. Both the relatively low basal expression of the agsA gene and the high level of induction after CFW stress (over 20-fold) makes the agsA promoter a good candidate for use as a reporter. The reporter construct further comprises the amdS gene (A. nidulans) with its own terminator. For targeting to the pyrG locus of the A. niger strain AB4.1 (pyrG^−) the pyrG* gene is included in the construct (cf. Van Gorcum et al., 1988). […]
The construct was transformed to strain AB4.1 (a pyrG negative strain derived from N402) and transformants were selected on the presence of an intact pyrG gene. Wild type strain N402 and purified transformants (ABRD1.1-1.25 and ABRD2.1-2.15) were analysed were grown on acetamide and acrylamide plates. […] The majority of the transformants were analysed by Southern blotting to confirm correct integration of the construct.

O=S(=O)(O)c1cc(Nc2nc(Nc3ccccc3)nc(N(CCO)CCO)n2)ccc1/C=C/c1ccc(Nc2nc(Nc3ccccc3)nc(N(CCO)CCO)n2)cc1S(=O)(=O)O [CFW, Calcofluor White]
increase in gfaA mRNA level [1]: 4 fold
expression level of fksA [2]: not significantly altered
time until polarized growth is resumed ([3]; after CFW treatment, dependent on CFW concentration): 2 to 4 h
hyphal morphology of germinating spores ([3]; treatment of germinating spores with CFW, concentration dependent): formation of swollen hyphe
growth of PagsA-AmdS transformants on acetamide plates [4]: resulted in growth (and sporulation) for the majority of the transformants
